US9302999B2, “Substituted triazoles as herbicides” (E. I. DU PONT DE NEMOURS AND COMPANY, priority 2012, dated 2016)

What was measured:
Type in all cases: in vivo
[1] = system: barnyardgrass (Echinochloa crus-galli); assay: Test A pre-/postemergence: barnyardgrass
Summary of the method: (§1)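 Injury was scored visually on a 0 (no effect) to 100 (complete control) scale versus untreated controls roughly ten days after treatment in the greenhouse. Compounds, formulated in surfactant-containing non-phytotoxic solvent, went on as soil-directed preemergence spray or postemergence to one- to two-leaf plants 2–10 cm tall.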

[2] = system: morningglory (Ipomoea spp.); assay: Test A pre-/postemergence: morningglory
Summary of the method: as §1

corn (Zea mays) = assay: Test A pre-/postemergence: corn
Summary of the method: as §1

rice (Oryza sativa) = assay: Test B flooded paddy: rice; settings: Flood, applied to paddy water at 2-leaf stage, visually evaluated after 13 to 15 days
Summary of the method: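 Response scored visually, 0–100 relative to controls, 13–15 days after the compound was applied into paddy water; plants were at the 2-leaf stage in pots kept flooded to 3 cm.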

[3] = system: galium (catchweed bedstraw, Galium aparine); assay: Test C pre-/postemergence: galium
Summary of the method: (§2)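 Preemergence on seeds in loam/sand, postemergence on 2–18 cm (1–4-leaf) plants in peat-based medium; compounds in non-phytotoxic solvent with surfactant. After 13–15 days in greenhouse, visual rating versus controls, 0 (no effect) to 100 (complete control).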

[4] = system: johnsongrass (Sorghum halepense); assay: Test C pre-/postemergence: johnsongrass
Summary of the method: as §2

kochia (Kochia scoparia) = assay: Test C pre-/postemergence: kochia; settings: Postemergence
Summary of the method: as §2

[5] = system: lambsquarters (Chenopodium album); assay: Test C pre-/postemergence: lambsquarters
Summary of the method: as §2

[6] = system: ragweed (common ragweed, Ambrosia elation); assay: Test C pre-/postemergence: ragweed
Summary of the method: as §2

[7] = system: velvetleaf (Abutilon theophrasti); assay: Test C pre-/postemergence: velvetleaf
Summary of the method: as §2

[8] = Postemergence, 125 g ai/ha, 0 to 100 scale, 0 is no effect, 100 is complete control
[9] = Postemergence, 500 g ai/ha, 0 to 100 scale, 0 is no effect, 100 is complete control
[10] = Preemergence, 125 g ai/ha, 0 to 100 scale where 0 is no effect and 100 is complete control
[11] = Preemergence, 500 g ai/ha, 0 to 100 scale (0 no effect, 100 complete control)
[12] = Postemergence, 31 g ai/ha, scale 0 to 100 (0 no effect, 100 complete control)
[13] = Postemergence, 62 g ai/ha, scale 0 to 100 (0 no effect, 100 complete control)
[14] = Postemergence, 125 g ai/ha, scale 0 to 100, 0 no effect, 100 complete control
[15] = Postemergence, 250 g ai/ha, scale 0 to 100 (0 no effect, 100 complete control)
[16] = Preemergence, 31 g ai/ha, scale 0 (no effect) to 100 (complete control)
[17] = Preemergence, 62 g ai/ha, scale of 0 to 100, 0 is no effect, 100 is complete control
[18] = Preemergence, 125 g ai/ha, scale 0 to 100, 0 no effect, 100 complete control
[19] = Preemergence, 250 g ai/ha, scale 0 to 100, 0 no effect, 100 complete control
[20] = 31 g ai/ha, scale 0 to 100 (0 no effect, 100 complete control)
[21] = 62 g ai/ha, scale 0 to 100 (0 no effect, 100 complete control)
[22] = 125 g ai/ha, scale 0 to 100, 0 no effect, 100 complete control
[23] = 250 g ai/ha, scale 0 to 100 (0 no effect, 100 complete control)

Structure (SMILES): CCCc1nn(-c2ccc(F)c(F)c2)nc1Oc1ccnc(C(F)(F)F)c1 [Compound 172]
- Plant response rating, Barnyardgrass [1, 8]: 90
- Barnyardgrass plant response rating [1, 9]: 90
- Plant response rating, Morningglory [2, 8]: 100
- Morningglory plant response rating [2, 9]: 100
- Plant response rating, Morningglory [2, 10]: 60
- Plant response rating, Morningglory [2, 11]: 80
- Plant response rating, Corn (corn (Zea mays); [8]): 30
- Corn plant response rating (corn (Zea mays); [9]): 50
- Plant response rating, Corn (corn (Zea mays); [10]): 30
- Plant response rating, Corn (corn (Zea mays); [11]): 60
- Plant response rating, Rice (0 to 100 scale, 0 is no effect, 100 is complete control) (rice (Oryza sativa); 250 g ai/ha): 50
- Plant response rating, Galium [3, 12]: 90
- Plant response rating, Galium [3, 13]: 90
- Plant response rating, Galium [3, 14]: 90
- Plant response rating, Galium [3, 15]: 90
- Plant response rating, Galium [3, 16]: 80
- Plant response rating, Galium [3, 17]: 100
- Plant response rating, Galium [3, 18]: 100
- Plant response rating, Galium [3, 19]: 100
- Plant response rating, Johnsongrass [4, 12]: 35
- Plant response rating, Johnsongrass [4, 13]: 60
- Plant response rating, Johnsongrass [4, 14]: 65
- Plant response rating, Johnsongrass [4, 15]: 95
- Plant response rating, Johnsongrass [4, 16]: 60
- Plant response rating, Johnsongrass [4, 17]: 75
- Plant response rating, Johnsongrass [4, 18]: 95
- Plant response rating, Johnsongrass [4, 19]: 98
- Plant response rating, Kochia (kochia (Kochia scoparia); [20]): 90
- Plant response rating, Kochia (kochia (Kochia scoparia); [21]): 90
- Plant response rating, Kochia (kochia (Kochia scoparia); [22]): 90
- Plant response rating, Kochia (kochia (Kochia scoparia); [23]): 90
- Plant response rating, Lambsquarters [5, 12]: 98
- Plant response rating, Lambsquarters [5, 13]: 98
- Plant response rating, Lambsquarters [5, 14]: 98
- Plant response rating, Lambsquarters [5, 15]: 98
- Plant response rating, Lambsquarters [5, 16]: 90
- Plant response rating, Lambsquarters [5, 17]: 90
- Plant response rating, Lambsquarters [5, 18]: 95
- Plant response rating, Lambsquarters [5, 19]: 95
- Plant response rating, Ragweed [6, 12]: 75
- Plant response rating, Ragweed [6, 13]: 75
- Plant response rating, Ragweed [6, 14]: 80
- Plant response rating, Ragweed [6, 15]: 80
- Plant response rating, Ragweed [6, 16]: 35
- Plant response rating, Ragweed [6, 17]: 40
- Plant response rating, Ragweed [6, 18]: 80
- Plant response rating, Ragweed [6, 19]: 85
- Plant response rating, Velvetleaf [7, 12]: 65
- Plant response rating, Velvetleaf [7, 13]: 65
- Plant response rating, Velvetleaf [7, 14]: 75
- Plant response rating, Velvetleaf [7, 15]: 80
- Plant response rating, Velvetleaf [7, 16]: 60
- Plant response rating, Velvetleaf [7, 17]: 75
- Plant response rating, Velvetleaf [7, 18]: 100
- Plant response rating, Velvetleaf [7, 19]: 100

Structure (SMILES): CCCc1nn(-c2ccc(F)cc2F)nc1Oc1ccnc(C(F)(F)F)c1 [Compound 179]
- Plant response rating, Barnyardgrass [1, 8]: 90
- Barnyardgrass plant response rating [1, 9]: 90
- Plant response rating, Barnyardgrass [1, 10]: 90
- Plant response rating, Barnyardgrass [1, 11]: 100
- Plant response rating, Morningglory [2, 8]: 100
- Morningglory plant response rating [2, 9]: 100
- Plant response rating, Morningglory [2, 10]: 40
- Plant response rating, Morningglory [2, 11]: 70
- Plant response rating, Corn (corn (Zea mays); [8]): 20
- Corn plant response rating (corn (Zea mays); [9]): 30
- Plant response rating, Corn (corn (Zea mays); [10]): 20
- Plant response rating, Corn (corn (Zea mays); [11]): 30
- Plant response rating, Rice (0 to 100 scale, 0 is no effect, 100 is complete control) (rice (Oryza sativa); 125 g ai/ha): 35
- Plant response rating, Galium [3, 12]: 90
- Plant response rating, Galium [3, 13]: 90
- Plant response rating, Galium [3, 14]: 90
- Plant response rating, Galium [3, 15]: 90
- Plant response rating, Galium [3, 16]: 80
- Plant response rating, Galium [3, 17]: 100
- Plant response rating, Galium [3, 18]: 100
- Plant response rating, Galium [3, 19]: 100
- Plant response rating, Johnsongrass [4, 12]: 10
- Plant response rating, Johnsongrass [4, 13]: 20
- Plant response rating, Johnsongrass [4, 14]: 20
- Plant response rating, Johnsongrass [4, 15]: 55
- Plant response rating, Johnsongrass [4, 16]: 5
- Plant response rating, Johnsongrass [4, 17]: 60
- Plant response rating, Johnsongrass [4, 18]: 95
- Plant response rating, Johnsongrass [4, 19]: 100
- Plant response rating, Kochia (kochia (Kochia scoparia); [20]): 80
- Plant response rating, Kochia (kochia (Kochia scoparia); [21]): 90
- Plant response rating, Kochia (kochia (Kochia scoparia); [22]): 90
- Plant response rating, Kochia (kochia (Kochia scoparia); [23]): 90
- Plant response rating, Lambsquarters [5, 12]: 80
- Plant response rating, Lambsquarters [5, 13]: 80
- Plant response rating, Lambsquarters [5, 14]: 85
- Plant response rating, Lambsquarters [5, 15]: 90
- Plant response rating, Lambsquarters [5, 16]: 98
- Plant response rating, Lambsquarters [5, 17]: 98
- Plant response rating, Lambsquarters [5, 18]: 98
- Plant response rating, Lambsquarters [5, 19]: 100
- Plant response rating, Ragweed [6, 12]: 50
- Plant response rating, Ragweed [6, 13]: 55
- Plant response rating, Ragweed [6, 14]: 60
- Plant response rating, Ragweed [6, 15]: 75
- Plant response rating, Ragweed [6, 16]: 40
- Plant response rating, Ragweed [6, 17]: 40
- Plant response rating, Ragweed [6, 18]: 45
- Plant response rating, Ragweed [6, 19]: 45
- Plant response rating, Velvetleaf [7, 12]: 55
- Plant response rating, Velvetleaf [7, 13]: 75
- Plant response rating, Velvetleaf [7, 14]: 75
- Plant response rating, Velvetleaf [7, 15]: 75
- Plant response rating, Velvetleaf [7, 16]: 30
- Plant response rating, Velvetleaf [7, 17]: 75
- Plant response rating, Velvetleaf [7, 18]: 80
- Plant response rating, Velvetleaf [7, 19]: 80

Structure (SMILES): CCc1nn(-c2ccc(C(F)(F)F)c(F)c2)nc1Oc1ccnc(C(F)(F)F)c1 [Compound 183]
- Plant response rating, Barnyardgrass [1, 8]: 80
- Barnyardgrass plant response rating [1, 9]: 90
- Plant response rating, Barnyardgrass [1, 10]: 90
- Plant response rating, Barnyardgrass [1, 11]: 100
- Plant response rating, Morningglory [2, 8]: 100
- Morningglory plant response rating [2, 9]: 100
- Plant response rating, Morningglory [2, 10]: 70
- Plant response rating, Morningglory [2, 11]: 90
- Plant response rating, Corn (corn (Zea mays); [8]): 20
- Corn plant response rating (corn (Zea mays); [9]): 50
- Plant response rating, Corn (corn (Zea mays); [10]): 20
- Plant response rating, Corn (corn (Zea mays); [11]): 30
- Plant response rating, Rice (0 to 100 scale, 0 is no effect, 100 is complete control) (rice (Oryza sativa); 125 g ai/ha): 45
- Plant response rating, Galium [3, 12]: 70
- Plant response rating, Galium [3, 13]: 70
- Plant response rating, Galium [3, 14]: 90
- Plant response rating, Galium [3, 15]: 90
- Plant response rating, Galium [3, 16]: 60
- Plant response rating, Galium [3, 17]: 100
- Plant response rating, Galium [3, 18]: 100
- Plant response rating, Galium [3, 19]: 100
- Plant response rating, Johnsongrass [4, 12]: 20
- Plant response rating, Johnsongrass [4, 13]: 30
- Plant response rating, Johnsongrass [4, 14]: 50
- Plant response rating, Johnsongrass [4, 15]: 75
- Plant response rating, Johnsongrass [4, 16]: 10
- Plant response rating, Johnsongrass [4, 17]: 35
- Plant response rating, Johnsongrass [4, 18]: 80
- Plant response rating, Johnsongrass [4, 19]: 95
- Plant response rating, Kochia (kochia (Kochia scoparia); [20]): 90
- Plant response rating, Kochia (kochia (Kochia scoparia); [21]): 90
- Plant response rating, Kochia (kochia (Kochia scoparia); [22]): 90
- Plant response rating, Kochia (kochia (Kochia scoparia); [23]): 95
- Plant response rating, Lambsquarters [5, 12]: 85
- Plant response rating, Lambsquarters [5, 13]: 95
- Plant response rating, Lambsquarters [5, 14]: 95
- Plant response rating, Lambsquarters [5, 15]: 98
- Plant response rating, Lambsquarters [5, 16]: 80
- Plant response rating, Lambsquarters [5, 17]: 100
- Plant response rating, Lambsquarters [5, 18]: 100
- Plant response rating, Lambsquarters [5, 19]: 100
- Plant response rating, Ragweed [6, 12]: 65
- Plant response rating, Ragweed [6, 13]: 80
- Plant response rating, Ragweed [6, 14]: 90
- Plant response rating, Ragweed [6, 15]: 95
- Plant response rating, Ragweed [6, 16]: 50
- Plant response rating, Ragweed [6, 17]: 50
- Plant response rating, Ragweed [6, 18]: 95
- Plant response rating, Ragweed [6, 19]: 95
- Plant response rating, Velvetleaf [7, 12]: 75
- Plant response rating, Velvetleaf [7, 14]: 75
- Plant response rating, Velvetleaf [7, 15]: 75
- Plant response rating, Velvetleaf [7, 16]: 45
- Plant response rating, Velvetleaf [7, 17]: 55
- Plant response rating, Velvetleaf [7, 18]: 100
- Plant response rating, Velvetleaf [7, 19]: 100
